Assay results reported in patent US5744471A, “Pyridazion quinoline compounds” (Zeneca Limited, priority 1993, dated 1998).
Where a name gives a salt, the structure may show the parent alone. Read-outs that look alike come from different tables or passages of the source.

Columns and labels:
[1] = tested on: NMDA-induced excitatory response of red nucleus cells; assay: Red Nucleus Test (Test C); format: in vivo; details: Rattus norvegicus, iv, read-out: ID50 (NMDA-induced excitatory response of red nucleus cells)
Protocol: The purpose of this test is to determine the effects of intravenously administered glycine antagonists on the NMDA-induced excitatory response of red nucleus cells.
The procedure for the red nucleus test is as follows. Rats are anesthetized with chloral hydrate (400 mg/kg ip) and the femoral vein is catheterized for iv drug administration. Five-barrel micropipettes are stereotaxically positioned in the red nucleus. Typically, three to four of the five barrels are filled as follows: the recording barrel with 2M potassium citrate, the current balancing barrel with 4M NaCl, the drug barrel with 25 mM NMDA, and another drug barrel with 2.5 mM quisqualic acid (QA is only used in selectivity studies). NHDA is iontophoretically applied with an ejection current that is adjusted depending on the sensitivity of each individual red nucleus cell. The NMDA is cycled on and off (usually 30-60 sec. on and 60-120 sec. off) and the firing rate of the cell during each period is recorded. Once the baseline firing rate of the cell has been established, the test drug is administered iv. The effect of the drug on the NMDA-induced excitatory response of the red nucleus cell can be both qualitatively and quantitatively evaluated from the recordings and the raw data accumulated.

[2] = target: T1, glycine receptor of the NMDA receptor complex (Rattus norvegicus, UniProt P35439); assay: [3H]-glycine binding assay (Test A; in-vitro glycine receptor assay); set-up: species or system rat (male Sprague-Dawley)
T1 construct: Freshly dissected cortices and hippocampi are homogenized in 0.32 M sucrose; from tissue; host or cells: rat cerebral cortex and hippocampus, synaptic membranes (male Sprague-Dawley)
Protocol: The actions of compounds according to the invention as antagonists at the giycine receptor of the NMDA receptor complex can be shown by one or more standard tests such as the [^3 H]-glycine binding assay (Test A) and by tests in vivo such as ischemia induced by carotid occlusion in the gerbil model (Test B). In addition to these tests, compounds of the invention are assayed in the red nucleus test (Test C) and in the Rat Middle Cerebral Artery test (Test D). These tests confirm that compounds of the invention are NMDA receptor antagonists in vitro and in vivo.
In the [^3 H]-glycine binding assay, neuronal synaptic membranes are prepared from adult (about 250 g) male Sprague-Dawley rats. Freshly dissected cortices and hippocampi are homogenized in 0.32 M sucrose (110 mg/mL). Synaptosomes are isolated by centrifugation (1000 xg, 10 min), the supernatant is pelleted (20,000 xg, 20 min) and resuspended in double-distilled water. The suspension was centrifuged for 20 minutes at 8,000 xg. The resulting supernatant and buffy coat are washed twice (48,000 xg, 10 mins, resuspension in double-deionized water). The final pellet is quickly frozen (dry ice/ethanol bath) under double-deionized water and stored at -70° C.
On the day of the experiment, thawed synaptic membranes are homogenized with a Brinkmann Polytron (tm, Brinkmann Instruments, Westbury, N.Y.) tissue homogenizer in 50 millimolar tris(hydroxymethyl)aminomethane citrate, pH 7.1. The membranes are incubated with 0.04% Sufact-AMPS X100 (tm, Pierce, Rockford, Ill.) in buffer for 20 minutes at 37° C. and washed six times by centrifugation (48,000 xg, 10 min) and resuspended in buffer. The final pellet is homogenized at 200 mg wet weight/mL of the buffer for the binding assay.
For [^3 H]-glycine binding at the N-methyl-D-aspartate receptor, 20 nanomolar [^3 H]-glycine (40-60 Ci/mmol, New England Nuclear, Boston, Mass.) is incubated with the membranes suspended in 50 millimolar tris (hydroxymethyl)aminomethane citrate, pH 7.1 for 30 minutes at 4° C. Glycine, 1 millimolar, is used to define the nonspecific binding. Bound [^3 H]-glycine is isolated from free using a Brandel (Biomedical Research and Development Laboratories, Gaithersburg, Md.) cell harvester for vacuum filtration over glass fiber filters (Whatman GF/B from Brandel, Gaithersburg, Md.) presoaked in 0.025% polyethylenimine. The samples retained on the glass fiber filters are rinsed 3 times with a total of 2.5 mL ice cold buffer. Radioactivity is estimated by liquid scintillation counting. IC50 values are obtained from a least-squares regression of a logit-log transformation of the data. […] The other examples disclosed herein are glycine antagonists.

[3] = tested on: neuronal damage in the hippocampus; assay: gerbil ischemic model, bilateral carotid occlusion (Test B); format: in vivo, Mongolian gerbils; details: 10 mg/Kg ip, 45 minutes before and 5 minutes after occlusion
Protocol: When testing in vivo using the gerbil ischemic model, adult female Mongolian gerbils (50-70 g) are anesthetized with 2 to 3% halothane. The bilateral common carotid arteries at the neck are exposed and occluded with microaneurysm clips. After 10 min (unless specified), the clips are removed and the blood flow through the carotid arteries is restored and the skin is sutured. Test compounds are administered intraperitoneally both pre- and post-occlusion, for example 45 minutes before and 5 minutes after occlusion of the carotid arteries. Sham-operated animals are treated in the same manner except that the arteries are not clamped. Gross behavioral observations along with motor activity are recorded for 2 hr on the first (24 hr) day following the occlusion. After 4 days, subjects are sacrificed (decapitation), brains are removed, fixed, sectioned and stained with hematoxylin/eosin and cresyl violet.
The brain sections are rated for neuronal damage in the hippocampus using the following rating scale:
1=slight damage (up to 25%)--restricted to CAI/subiculum border
2=moderate damage (up to 50%)--obvious damage, restricted to less than half of CA1 field […]
Sections (7 micron) are evaluated from each brain. […] The average brain damage rating score for each group is recorded, and the damage scores of the drug treated group are compared to the vehicle-treated group using Wilcoxon-Rank Sum test.

[4] = read-out: IC50 in the [3H]Gly test
[5] = 20 nanomolar [3H]-glycine, rat synaptic membranes, pH 7.1, 4° C., read-out: IC50 in the [3H]-glycine binding assay

Q: How did the ED50 ([1]; reference agents) turn out when `NC1CCN(O)C1=O` (stereo not shown) [HA-966] was run?
A: 7.9 mg/kg

Q: Which IC50 [2, 4] does the source give for `O=c1c2ccc(Cl)cc2[nH]c2c(=O)n(-c3ccc(O)cc3)nc(O)c12` [Example 9, 7-Chloro-1-hy droxy-3-(4-hydroxyphenyl)-3,4,5,10-tetrahydropyridazino[4,5-b]quinoline-4,10-dione] here?
A: > 100 µM

Q: And the “activity in the in-vitro glycine receptor assay” value ([2]; result in words)?
A: inactive

Q: How did the IC50 [2, 5] turn out when `O=c1c2ccc(Cl)cc2[nH]c2c(=O)n(CCO)nc(O)c12` [Example 1, 7-Chloro-1-hydroxy-3-(2-hydroxyethyl)-3,4,5,10-tetrahydropyridazino[4,5-b]quinoline-4,10-dione] was run?
A: 40 µM

Q: For `O=c1c2ccc(Cl)cc2[nH]c2c(O)nn(-c3ccc(O)cc3)c(=O)c12` [Example 10, 7-Chloro-4-hydroxy-2-(4-hydroxyphenyl)-1,2,5,10-tetrahydropyridazino[4,5-b]quinoline-1,10-dione], which “neuroprotection (relative to sham-operated control)” value [3] is on record?
A: over 80%

Q: What about the IC50 [2, 5] of the same compound?
A: 0.12 µM

Q: Which results are given for `COc1ccc(-n2nc(O)c3c(=O)c4ccc(Cl)cc4[nH]c3c2=O)cc1` [Example 7, 7-Chloro-1-hydroxy-3-(4-methoxyphenyl)-3,4,5,10-tetrahydropyridazino[4,5-b]quinoline-4,10-dione]?
A: IC50 [2, 4]: > 100 µM; activity in the in-vitro glycine receptor assay ([2]; result in words): inactive

Q: For `CC(C)c1ccc(-n2nc(O)c3c(=O)c4ccc(Cl)cc4[nH]c3c2=O)cc1` [Example 20, 7-Chloro-1-hydroxy-3-(4-isopropylphenyl)-3,4,5,10-tetrahydropyridazino[4,5- ]-quinoline-4,10-dione], which “activity in the in-vitro glycine receptor assay” value ([2]; result in words) is on record?
A: inactive

Q: Which “activity in the in-vitro glycine receptor assay” value ([2]; result in words) does the source give for `O=c1c2ccc(Cl)cc2[nH]c2c(=O)n(-c3ccc(Cl)cc3)nc(O)c12` [Example 16, 7-Chloro-1-hydroxy-3-(4-chlorophenyl)-3,4,5,10-tetrahydropyridazino[4,5-b]quinoline-4,10-dione] here?
A: inactive

Q: With `Cc1ccc(-n2nc(O)c3c(=O)c4ccc(Cl)cc4[nH]c3c2=O)cc1` [Example 18, 7-Chloro-1-hydroxy-3-(4-methylphenyl)-3,4,5,10-tetrahydropyridazino[4,5-b]quinoline-4,10-dione] as the compound, how does the “activity in the in-vitro glycine receptor assay” value ([2]; result in words) read?
A: inactive

Q: How did the ED50 [1] turn out when `C/C(=C\C(N)C(=O)O)CP(=O)(O)O` (stereo not shown) [CGP 37849] was run?
A: 1.7 mg/kg

Q: Which “glycine receptor antagonist activity” value ([2]; result in words) does the source give for `O=C(NCCn1nc(O)c2[nH]c3cc(Cl)ccc3c(=O)c2c1=O)c1ccccc1` [2-ethylbenzamidederivative] here?
A: active as a glycine receptor antagonist

Q: `O=c1c2ccc(Cl)cc2[nH]c2c(=O)n(-c3ccccc3)nc(O)c12` [Example 5, 7-Chloro-1-hydroxy-3-phenyl-3,4,5,10-tetrahydropyridazino[4,5-b]-quinoline-4,10-dione, choline salt] was tested. Which “activity in the in-vitro glycine receptor assay” value ([2]; result in words) did it give?
A: inactive

Q: With `O=C1c2ccccc2C(=O)N1CCn1nc(O)c2[nH]c3cc(Cl)ccc3c(=O)c2c1=O` [Example 4, 7-Chloro-4-hydroxy-2-(2-phthalimidoethyl)-1,2,5,10-tetrahydropyridazino[4,5-b]quinoline-1,10-dione] as the compound, how does the “neuroprotection (relative to sham-operated control)” value [3] read?
A: 35%

Q: How did the IC50 [2, 4] turn out when `CC(=O)OCCn1nc(O)c2c(=O)c3ccc(Cl)cc3[nH]c2c1=O` [3-(2-Acetoxyethyl), 3-(2-Acetoxyethyl)7-chloro-4-hydroxy-1,2,5,10-tetrahydropyridazino[4,5-]quinoline-1,10-dione] was run?
A: > 100 µM
